The target of experiment [1] is T1, topoisomerase IV (Escherichia coli, UniProt P0AFI2+P20083). As to the kind of experiment: Topoisomerase IV relaxation, microplate assay. In kind it is biochemical.
The target of experiment [2] is T1, topoisomerase IV. As to the kind of experiment: Topoisomerase IV relaxation, gel electrophoresis assay. In kind it is biochemical.

Drawing on US7838230B2 (priority 2004, dated 2010), this text covers IC50 for two molecules.

By IC50 is commonly meant the concentration that inhibits the measured activity by half.

T1 sequence (P20083 whole entry): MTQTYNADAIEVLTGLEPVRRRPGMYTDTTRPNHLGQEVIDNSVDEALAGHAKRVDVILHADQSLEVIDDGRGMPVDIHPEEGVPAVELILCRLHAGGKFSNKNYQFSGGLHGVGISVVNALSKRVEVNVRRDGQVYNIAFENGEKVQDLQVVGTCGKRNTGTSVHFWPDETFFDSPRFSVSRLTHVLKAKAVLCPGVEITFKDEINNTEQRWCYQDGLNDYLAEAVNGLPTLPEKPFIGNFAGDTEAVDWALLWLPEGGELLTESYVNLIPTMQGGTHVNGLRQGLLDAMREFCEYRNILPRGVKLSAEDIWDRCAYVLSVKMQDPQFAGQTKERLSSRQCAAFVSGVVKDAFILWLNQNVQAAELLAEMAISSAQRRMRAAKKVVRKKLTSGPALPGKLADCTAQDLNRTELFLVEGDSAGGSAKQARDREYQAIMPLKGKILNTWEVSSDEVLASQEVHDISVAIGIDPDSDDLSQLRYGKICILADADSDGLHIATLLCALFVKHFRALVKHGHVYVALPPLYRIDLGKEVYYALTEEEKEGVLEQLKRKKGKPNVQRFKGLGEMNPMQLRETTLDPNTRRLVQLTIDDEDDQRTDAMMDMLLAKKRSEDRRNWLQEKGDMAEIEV
T1 sequence (P0AFI2 whole entry): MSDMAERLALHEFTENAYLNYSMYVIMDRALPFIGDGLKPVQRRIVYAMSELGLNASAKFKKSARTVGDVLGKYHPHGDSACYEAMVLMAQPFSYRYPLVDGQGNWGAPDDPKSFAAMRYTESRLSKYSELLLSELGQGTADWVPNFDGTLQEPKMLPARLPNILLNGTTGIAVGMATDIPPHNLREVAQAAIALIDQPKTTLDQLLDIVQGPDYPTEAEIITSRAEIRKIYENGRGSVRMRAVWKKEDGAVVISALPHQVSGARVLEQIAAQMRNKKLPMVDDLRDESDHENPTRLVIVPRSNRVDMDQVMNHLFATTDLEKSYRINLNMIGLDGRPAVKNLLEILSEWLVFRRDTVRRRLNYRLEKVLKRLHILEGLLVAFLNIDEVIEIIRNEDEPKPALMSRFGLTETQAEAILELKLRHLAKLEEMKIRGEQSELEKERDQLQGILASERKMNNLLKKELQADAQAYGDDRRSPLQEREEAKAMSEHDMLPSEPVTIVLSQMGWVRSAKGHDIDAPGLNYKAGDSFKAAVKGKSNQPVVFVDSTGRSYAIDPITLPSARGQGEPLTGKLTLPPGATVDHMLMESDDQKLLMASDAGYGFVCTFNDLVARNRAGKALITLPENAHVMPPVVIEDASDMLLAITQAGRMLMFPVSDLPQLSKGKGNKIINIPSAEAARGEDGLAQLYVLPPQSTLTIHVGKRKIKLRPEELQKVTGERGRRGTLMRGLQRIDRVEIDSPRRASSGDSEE

In the case of `CO[C@@H]1[C@@H](OC(=O)c2ccc(C)[nH]2)[C@@H](O)[C@H](Oc2ccc3c(O)c(NC(=O)c4ccc(O)c(CC=C(C)C)c4)c(=O)oc3c2Cl)OC1(C)C` [Chlorbiocin], the half-inhibitory concentration (IC50) turned out to be 0.32 µM on topoisomerase IV [1] (supercoiled pNO1 substrate, plate assay, read-out: Topo IV Relaxation IC50 Plate assay) and 0.14 µM on topoisomerase IV [2] (supercoiled pNO1 substrate, gel assay, read-out: Topo IV Relaxation IC50 Gel assay).

Take `CCn1cc(C(=O)O)c(=O)c2ccc(C)nc21` [Naladixic acid]: the IC50 against topoisomerase IV [1] was found to be 88.4 µM; at topoisomerase IV [2], 36.3 µM.
